Measured values taken from patent US9981983B2, “Thienopyranones as kinase inhibitors” (SignalRx Pharmaceuticals, Inc., priority 2008, dated 2018).
Read-outs that look alike come from different tables or passages of the source.

What was measured:
OVCAR3 (Ovary) = assay: Cell proliferation MTS assay, OVCAR3; assay type: cell-based; conditions: Homo sapiens, OVCAR-3, 72 hours
Method: (§1) All cell lines were obtained from ATCC and cultured and plated according to ATCC recommendations. Cells were cultured in complete culture media containing 10% heat-inactivated fetal bovine serum (FBS, Mediatech, Inc.). For adherent cell lines, once cells reached 70% confluency, they were trypsinized and resuspended in phenol red free RPMI media (Mediatech, Inc.) plus 10% heat-inactivated FBS (assay buffer) and 100 μL aliquots were plated into each well of 96-well microtiter plates at a final density of 1,000-2,000 cells/well. Cells were incubated overnight at 37° C. in 5% CO2, and treated with test compounds on the next day. For suspension cell lines, cells were resuspended in assay buffer, plated into 96-well microtiter plates at a density of 10^4-10^5 cells/well/100 μL, and treatment was started on the same day. Cells were treated with vehicle (DMSO) and test compounds for 72 hours at concentration of 100, 70, 40, 20, 10, 5, 2.5, 1.25, 0.5 and 0.2 μM in four replicates at 37° C. in 5% CO2.

PC3 (Prostate) = assay: Cell proliferation MTS assay, PC3; assay type: cell-based; conditions: 72 hours
Method: as §1

DU145 (Prostate) = assay: Cell proliferation MTS assay, DU145; assay type: cell-based; conditions: Homo sapiens, DU-145, 72 hours
Method: as §1

RPM18226 (Myeloma) = assay: Cell proliferation MTS assay, RPM18226; assay type: cell-based; conditions: 72 hours
Method: as §1

H1299 cells = assay: Cellular proliferation (Example B method), H1299; assay type: cell-based; conditions: Homo sapiens, NCI-H1299; H1299, non-small cell lung cancer
Method: (§2) PC3 cells were obtained from the American Type Culture Collection (ATCC, Manassas, Va., Cat.# CRL-1435) Two thousand cells from the prostate cancer line PC3 were placed in 50 μL of complete RPMI 1640 media (Invitrogen, Carlsbad, Calif., Cat.#22400-105) with 10% fetal bovine serum (Invitrogen, Carlsbad, Calif., Cat.#10438-026) into each well of 96 well cell culture plates in a hexaplicate sampling pattern. A 50 μL aliquot of test compound (prepared from stock test compounds in DMSO diluted into media) was added to the appropriate well such that the final concentrations of test compound were 200, 40, 8, 1.6, 0.32, 0.064, 0.0128, 0.00256, and 0 μM and the final DMSO concentration was less than or equal to 0.2%.
(§3) The plates were incubated for 72 hours 37° C. in an atmosphere of 5% CO2. At the end of this time a 10 μL aliquot of WST solution (Roche Applied Science, Mannheim, Germany) was added into each of the wells. Cells were exposed to the WST solution for 4 hours. A SpectraMax Plus spectrophotometric plate reader (Molecular Devices, Sunnydale, Calif.) was then used to measure the optical density at 450 nm (OD450 nm). Sigmoidal curves were drawn for the dose responses and IC50 values were calculated using the software package GraphPad Prism4 (GraphPad Software, Inc., San Diego, Calif.).
(§4) Several other cancer cell lines were obtained from ATCC and grown according to their recommendations and treated with test compounds to obtain the concentration of test compound that inhibited the cellular proliferation by 50% of no-treatment controls. These IC50 values (μM) are listed in Table 7 below obtained by the methods described in Example B: […]

[1] = tested on: 786-0 renal cell carcinoma xenograft; assay: 786-0 renal cell carcinoma xenograft mouse model; assay type: in vivo, nude mice; conditions: ip, 3×/wk for 4 weeks
Method: To determine if Cpd 9 has anti-tumor effects, an in vivo study was conducted in a 786-0 renal cell carcinoma xenograft model, 786-0 cells (2×10^6) were inoculated subcutaneously into nude mice in the flank area and tumor growth was monitored with calipers via external measurements. Tumor volume was calculated using the formula volume=(length×width^2)/2. When the average tumor volume reached 400 mm^3, mice were randomly divided into 2 groups and treated with either DMSO (control) or Cpd 9 (25 mg/kg, ip) three times weekly (M, W, F) for two weeks.
To determine if Cpd 28 has anti-tumor effects, an in vivo study was conducted in a 786-0 renal cell carcinoma xenograft model, 786-0 cells (2×10^6) were inoculated subcutaneously into nude mice in the flank area and tumor growth was monitored with calipers via external measurements. Tumor volume was calculated using the formula volume=(length×width^2)/2. Treatment was started when tumors reached an average volume of 300 mm^3. […] DMSO was used as control since this was the vehicle the compounds were dissolved in. Tumor size was monitored twice weekly and body weight was monitored once weekly. Means and standard deviations were calculated and the Student t test method was used for statistical comparisons.

[2] = tested on: AKT Ser473 phosphorylation in renal cell carcinoma (786-O) Cell Line; assay: pAKT Ser473 ELISA in 786-O cells stimulated by Bv8, VEGF, IGF; assay type: cell-based; conditions: Homo sapiens, 786-0, 786-O, read-out: Concentration Required to Inhibit pAKT to Half-maximal Levels
Method: This was followed by the addition of IGF, VEGF and Bv8 to 0.1 μg/mL, 0.1 μg/mL and 2.5 μg/mL respectively for another 30 minutes before harvesting the cells and making cell lysates with RIPA buffer keeping on ice, pAKT levels were measured in duplicate samples with Cell Signaling's Ser473 pAKT ELISA kit. Optical density plate readings of pAKT levels were made at 450 nm (OD450 nm) and were normalized by total protein amount of the cell lysates. The dose of compound at which pAKT levels are reduced to 50% of the non-treatment level was calculated using GraphPad Prism4 software and is listed in Tables 4 and 5 below.

[3] = Cell proliferation MTS assay, Hela; assay type: cell-based; conditions: Homo sapiens, 72 hours, read-out: IC50 Hela (Colon)
Method: as §1

HL60 (AML) = assay: Cell proliferation MTS assay, HL60; assay type: cell-based; conditions: Homo sapiens, HL-60, 72 hours
Method: as §1

BT-474 cells = assay: Cellular proliferation (Example B method), BT-474; assay type: cell-based; conditions: Homo sapiens; BT-474, breast cancer
Method: as §2, §3, §4

HCT116 (Colon) = assay: Cell proliferation MTS assay, HCT116; assay type: cell-based; conditions: Homo sapiens, HCT-116, 72 hours
Method: as §1

[4] = tested on: HUVEC (Endothelial-noncancer); assay: Cell proliferation MTS assay, HUVEC; assay type: cell-based; conditions: Homo sapiens, 72 hours
Method: as §1

A549 (Lung) = assay: Cell proliferation MTS assay, A549; assay type: cell-based; conditions: Homo sapiens, 72 hours
Method: as §1

786-O (Renal) = assay: Cell proliferation MTS assay, 786-O; assay type: cell-based; conditions: Homo sapiens, 786-0, 72 hours
Method: as §1

IC50 (OVCAR3 (Ovary)): 1240 nM
IC50 (PC3 (Prostate)): 1220 nM
IC50 (DU145 (Prostate)): 2070 nM
IC50 (RPM18226 (Myeloma)): 730 nM
IC50 (H1299 cells): 951 nM
IC50 ([2]; stimulant Bv8): 380 nM
IC50 ([2]; stimulant IGF): 2600 nM
IC50 ([2]; stimulant PBS): 541 nM
IC50 ([2]; stimulant VEGF): 343 nM
IC50 [3]: 2100 nM
IC50 (HL60 (AML)): 3060 nM
IC50 (BT-474 cells): 3780 nM
IC50 (HCT116 (Colon)): 2200 nM
IC50 (A549 (Lung)): 2540 nM
IC50 (786-O (Renal)): 2820 nM
SMILES: O=c1cc(N2CCOCC2)oc2c(-c3ccc4c(c3)OCCO4)csc12 [Compound 28, 3-(2,3-dihydrobenzo[b][1,4]dioxin-6-yl)-5-morpholino-7H-thieno[3,2-b]pyran-7-one]
tumor growth inhibition compared to control ([1]; 25 mg/kg): 70%
body weight change or other abnormalities ([1]; 50 mg/kg): no significant body weight change or other abnormalities noted
tumor growth inhibition compared to control ([1]; 50 mg/kg): 81%
IC50 [4]: 1230 nM
